Data on one compound can be found in patent US20250186317A1, “SKIN CARE COMPOSITION COMPRISING LACTIC ACID, POLYHYDROXY ACID, AND ITS BUFFERING SALT” (The Procter & Gamble Company, priority 2023, published 2025).

The data set deals with skin. The data set is described as follows: Bakuchiol penetration to skin from low pH formulations. Particulars: in low pH formulations compared to neutral/alkaline pH formulations.

Consider `C=C[C@@](C)(/C=C/c1ccc(O)cc1)CCC=C(C)C` [bakuchiol, Bakuchiol], for which the Penetration to skin entry is on record as “improved penetration to skin”.
